# Experimental data taken from the supplement of paper PMC10307832.
# Assays:
# Test in all cases: relative viability (nuclei count vs DMSO), 5 days (fraction); higher = more cells survive
# [1] = compound: CC1=NN=C(O1)C2=NN=C(C=C2)N3CCC(CC3)OC4=C(C=CC(=C4)F)Cl + O=C(CCCCCCC(=O)Nc1ccccc1)NO [Vorinostat] (partner 1 µM)
# Summary of the method: (§1)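 Lung cancer cell lines were seeded in 1536-well plates and dosed by pin tool the next day, with either a single drug or a fixed anchor-drug dose combined with five library-drug doses (not always all listed) spaced in √10 steps. Five days later, one step fixed the cells and stained their nuclei (final 0.05% Triton X-100, 1% formaldehyde, 1 ug/ml Hoechst), and nuclei were counted on 4× images. Relative viability is the nuclei count in treated wells divided by the count in vehicle wells, and each value is the median of duplicate plates.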
# Tosedostat + Decitabine = compound: CC(C)C[C@@H](C(=O)N[C@H](C(=O)OC1CCCC1)c1ccccc1)[C@H](O)C(=O)NO [Tosedostat] + Nc1ncn([C@H]2C[C@H](O)[C@@H](CO)O2)c(=O)n1 [Decitabine] (partner 2 µM)
# Summary of the method: as §1
# [2] = compound: CC1=NN=C(O1)C2=NN=C(C=C2)N3CCC(CC3)OC4=C(C=CC(=C4)F)Cl + Cc1cc(Nc2cc(N3CCN(C)CC3)nc(Sc3ccc(NC(=O)C4CC4)cc3)n2)n[nH]1 [Tozasertib] (partner 0.1 µM)
# Summary of the method: as §1
# Tosedostat + Crizotinib = compound: CC(C)C[C@@H](C(=O)N[C@H](C(=O)OC1CCCC1)c1ccccc1)[C@H](O)C(=O)NO [Tosedostat] + C[C@@H](Oc1cc(-c2cnn(C3CCNCC3)c2)cnc1N)c1c(Cl)ccc(F)c1Cl [Crizotinib] (partner 1 µM)
# Summary of the method: as §1
Cell Line,relative viability ([1]; first compound 0.253 µM),relative viability ([1]; first compound 0.8 µM),relative viability ([1]; first compound 2.53 µM),relative viability ([1]; first compound 8 µM),relative viability (Tosedostat + Decitabine; first compound 0.02 µM),relative viability (Tosedostat + Decitabine; first compound 0.06325 µM),relative viability (Tosedostat + Decitabine; first compound 0.2 µM),relative viability (Tosedostat + Decitabine; first compound 0.6325 µM),relative viability (Tosedostat + Decitabine; first compound 2 µM),relative viability ([2]; first compound 0.253 µM),relative viability ([2]; first compound 0.8 µM),relative viability ([2]; first compound 2.53 µM),relative viability ([2]; first compound 8 µM),relative viability (Tosedostat + Crizotinib; first compound 0.02 µM),relative viability (Tosedostat + Crizotinib; first compound 0.06325 µM),relative viability (Tosedostat + Crizotinib; first compound 0.2 µM),relative viability (Tosedostat + Crizotinib; first compound 0.6325 µM),relative viability (Tosedostat + Crizotinib; first compound 2 µM)
NCI-H2170,0.449,0.366,0.473,0.362,0.454,0.499,0.491,0.421,0.453,0.306,0.416,0.392,0.331,1.17,1.12,1.19,1.22,1.37
NCI-H23,0.565,0.359,0.558,0.514,0.309,0.315,0.323,0.286,0.306,0.312,–,0.275,0.46,0.504,0.494,0.442,0.341,0.206
NCI-H596,0.474,0.564,0.6,0.567,1.3,1.13,1.03,0.879,0.838,0.966,0.716,0.862,0.826,0.968,1.07,1.13,1.15,0.825
SK-LU-1,0.675,0.629,0.662,0.589,0.624,0.651,0.563,0.471,0.454,0.325,–,0.275,0.25,0.898,0.775,0.731,0.693,0.871
NCI-H650,0.451,0.248,0.294,0.329,0.291,0.339,0.316,0.319,0.262,0.724,0.698,0.676,0.682,0.786,0.662,0.596,0.551,0.375
LU99A,0.549,0.456,0.534,0.563,0.906,0.769,0.909,0.744,0.693,0.279,0.271,0.268,0.287,0.546,0.636,0.648,0.484,0.478
NCI-H520,0.561,0.712,0.569,0.613,0.524,0.439,0.414,0.459,0.495,–,0.38,0.398,0.443,0.692,0.754,0.787,0.833,0.846
NCI-H661,0.802,0.745,0.702,0.629,0.637,0.547,0.535,0.522,0.512,0.305,0.319,0.308,0.265,0.929,0.93,1.12,1.04,1.04
PC-3 [JPC-3],0.703,0.526,0.797,0.478,0.833,0.813,0.872,0.768,0.555,0.774,0.813,0.797,0.67,1,0.885,0.998,0.942,0.665
RERF-LC-KJ,0.347,0.467,0.453,0.493,0.657,0.622,0.615,0.495,0.457,0.341,0.351,0.367,0.322,0.859,0.887,0.764,0.686,0.78
NCI-H1915,0.457,0.219,0.401,0.325,0.226,0.283,0.26,0.261,0.214,0.265,0.222,0.222,0.192,0.922,0.894,0.901,0.905,0.79
H3255,0.581,0.597,0.533,0.557,0.595,0.559,0.553,0.531,0.645,0.619,0.489,0.589,0.542,0.976,0.846,0.812,0.669,0.827
201T,0.474,0.501,0.478,0.479,0.835,0.894,0.879,0.891,0.846,0.421,0.432,0.427,0.421,1.04,1.05,1.08,1.11,1.09
NCI-H2405,0.583,0.556,0.535,0.455,0.772,0.733,0.712,0.603,0.657,0.415,0.325,0.395,0.424,0.873,0.772,0.825,0.771,0.791
HOP-62,0.543,0.243,0.287,0.203,0.227,0.203,0.258,0.159,0.186,0.296,0.288,0.205,0.222,1.01,0.994,0.677,0.81,0.69
NCI-H727,1.16,1.02,1.38,1.22,0.88,0.9,0.868,0.794,0.754,0.65,0.804,0.53,0.668,0.983,0.784,0.658,0.557,0.513
NCI-H1993,0.681,0.763,0.766,0.762,0.487,0.673,0.576,0.511,0.525,0.558,0.603,0.635,0.571,0.994,0.761,0.779,0.688,0.685
NCI-H2126,0.754,0.651,0.642,0.631,0.533,0.583,0.591,0.478,0.462,0.765,0.786,0.763,0.715,0.974,1.02,1.02,0.954,0.935
